Measurements published in the Deep4Chem optical property database.
One block for each compound: values may come before it.

Test: solvent given as SMILES

Structure (SMILES): CCOC(=O)COc1ccc(/C=C/C2=C3c4ccccc4C(c4[nH]c(C)cc4C)=[N+]3[B-](F)(F)n3c(/C=C/c4ccc(OCC(=O)OCC)cc4)cc(C)c32)cc1
absorption maximum (in C1CCOC1): 676 nm
absorption maximum (in CC#N): 667 nm
absorption maximum (in CCCCCC): 674 nm
absorption maximum (in CO): 668 nm
absorption maximum (in Cc1ccccc1): 683 nm
absorption maximum (in ClCCl): 676 nm

Structure (SMILES): COc1cccc(-c2nc3sc4ccccc4c3s2)c1
absorption maximum (in CS(C)=O): 350 nm

Structure (SMILES): CCCCC1=Cc2c3ccc4cccc5ccc(c6cc(-c7ccc(N(c8ccccc8)c8ccccc8)cc7)n(c26)P1(=O)c1ccccc1)c3c45 (configuration not stated)
absorption maximum (in C1CCCCC1): 431 nm
absorption maximum (in C1CCOC1): 432 nm
absorption maximum (in C1COCCO1): 432 nm
absorption maximum (in CC#N): 428 nm
absorption maximum (in CC(C)=O): 429 nm
absorption maximum (in CO): 428 nm
absorption maximum (in Cc1ccccc1): 434 nm
absorption maximum (in ClC(Cl)Cl): 433 nm
absorption maximum (in ClCCl): 431 nm

Structure (SMILES): Cc1ccc(Nc2ccc(Nc3ccc(C)cc3)c3c2C(=O)c2ccccc2C3=O)cc1
absorption maximum (in C1CCCCC1): 639 nm
absorption maximum (in C1COCCO1): 638 nm
absorption maximum (in CC(C)=O): 638 nm
absorption maximum (in CCCCCCCCCCO): 644 nm
absorption maximum (in CCCCCCCO): 641 nm
absorption maximum (in CCCCCCO): 642 nm
absorption maximum (in CCCCO): 639 nm
absorption maximum (in CCO): 637 nm
absorption maximum (in CN(C)C=O): 643 nm
absorption maximum (in CO): 636 nm
absorption maximum (in CS(C)=O): 644 nm
absorption maximum (in ClC(Cl)(Cl)Cl): 642 nm
absorption maximum (in c1ccccc1): 642 nm

Structure (SMILES): c1ccc(-c2nc(-c3c[nH]c4ccccc34)n3ccccc23)cc1
absorption maximum (in C1CCCCC1): 382 nm
absorption maximum (in CC#N): 381 nm
absorption maximum (in CO): 372 nm
absorption maximum (in ClCCl): 380 nm
absorption maximum (in O): 390 nm

Structure (SMILES): Cc1ccc(C2=[N+]3C(=Cc4c(C)cc(C)n4[B-]3(F)F)c3ccccc32)[nH]1
absorption maximum (in C1CCOC1): 607 nm
absorption maximum (in CC#N): 600 nm
absorption maximum (in CCCCCC): 607 nm
absorption maximum (in CO): 602 nm
absorption maximum (in Cc1ccccc1): 612 nm
absorption maximum (in ClCCl): 608 nm

Structure (SMILES): CCCCCCCCC1(CCCCCCCC)c2cc(-c3ccc(C#N)cc3)ccc2-c2ccc(-c3ccc(C#N)cc3)cc21
absorption maximum (in ClC(Cl)Cl): 341 nm

Structure (SMILES): COCCC1=Cc2nc1ccc1[nH]c(cc1CCOC)c1nc(c(OC(C)=O)cc3[nH]c2cc3CCOC)C(CCOC)=C1
absorption maximum (in Cc1ccccc1): 647 nm

Structure (SMILES): CC[Si](CC)(CC)c1cc2ccc3cccc4ccc(c1C(=O)NC(C)(C)C)c2c34
absorption maximum (in ClC(Cl)Cl): 381 nm

Structure (SMILES): CCCN1C(=O)c2c3c(c4c(c2C1=O)CCc1cc(-c2ccc(N(C)C)cc2)c(OC)cc1-4)-c1cc(OC)c(-c2ccc(N(C)C)cc2)cc1CC3
absorption maximum (in C1CCCCC1): 404 nm
absorption maximum (in C1CCOC1): 409 nm
absorption maximum (in CCOC(C)=O): 407 nm
absorption maximum (in Cc1ccccc1): 412 nm

Structure (SMILES): CCN(CC)c1ccc2cc(-c3ccc(-c4ccc5c6ccccc6c6c7cc(-c8ccc(-c9cc%10ccc(N(CC)CC)cc%10oc9=O)cc8)ccc7c7ccccc7c6c5c4)cc3)c(=O)oc2c1
absorption maximum (in ClC(Cl)Cl): 412 nm

Structure (SMILES): CN(C)c1ccc(/C=C/c2cc[n+](CCCCC[n+]3ccc(/C=C/c4ccc(N(C)C)cc4)cc3)cc2)cc1
absorption maximum (in CC1COC(=O)O1): 478 nm
absorption maximum (in CC#N): 478 nm
absorption maximum (in CC(C)=O): 476 nm
absorption maximum (in CC(C)O): 486 nm
absorption maximum (in CCO): 492 nm
absorption maximum (in CN(C)C=O): 478 nm
absorption maximum (in CO): 484 nm
absorption maximum (in CS(C)=O): 479 nm
absorption maximum (in ClC(Cl)Cl): 494 nm
absorption maximum (in O): 457 nm
absorption maximum (in c1ccncc1): 490 nm

Structure (SMILES): N#CC=C(c1ccc(N2c3ccccc3Oc3ccccc32)cc1)c1ccc(N2c3ccccc3Oc3ccccc32)cc1
absorption maximum (in Cc1ccccc1): 405 nm

Structure (SMILES): O=S(=O)(c1cccc(N2c3ccccc3Oc3ccccc32)c1)c1cccc(N2c3ccccc3Oc3ccccc32)c1
absorption maximum (in C1CCOC1): 317 nm
absorption maximum (in Cc1ccccc1): 308 nm
absorption maximum (in ClC(Cl)Cl): 315 nm

Structure (SMILES): CC1=CC(C)(C)N(C)c2cc3c(cc21)C(c1ccc(Br)cc1)=c1cc2c(cc1O3)=[N+](C)C(C)(C)C=C2C
absorption maximum (in CCO): 594 nm

Structure (SMILES): Cc1nc2cccc(-c3nc4ccc([N+](=O)[O-])cc4[nH]3)c2c(=O)[nH]1
absorption maximum (in CN(C)C=O): 310 nm

Structure (SMILES): CCCCCCc1ccc(-n2c3c(c4c2c2c(n4-c4ccc(CCCCCC)cc4)-c4cccc(OC)c4NB2c2ccccc2)B(c2ccccc2)Nc2c(OC)cccc2-3)cc1
absorption maximum (in Cc1ccccc1): 382 nm

Structure (SMILES): N#CC(C#N)=C(/C=C/c1cc2c3c(c1)CCCN3CCC2)c1ccc2c3c(cccc13)CC2
absorption maximum (in C1CCOC1): 527 nm
absorption maximum (in CC#N): 540 nm
absorption maximum (in CC(C)=O): 535 nm
absorption maximum (in CCOC(C)=O): 523 nm
absorption maximum (in CN(C)C=O): 550 nm
absorption maximum (in CO): 541 nm
absorption maximum (in Cc1ccccc1): 526 nm
absorption maximum (in ClC(Cl)Cl): 538 nm

Structure (SMILES): CC1(C)c2ccccc2N(c2ccc(C(=C(C#N)C#N)c3ccc(N4c5ccccc5C(C)(C)c5ccccc54)cc3)cc2)c2ccccc21
absorption maximum (in Cc1ccccc1): 436 nm

Structure (SMILES): COCCOCCOCCOc1ccc(OCCOCCOCCOC)c(C=O)c1
absorption maximum (in CC(C)(C)O): 349 nm
absorption maximum (in CC(C)CO): 349 nm
absorption maximum (in CC(C)O): 349 nm
absorption maximum (in CCCCO): 348 nm
absorption maximum (in CCCO): 348 nm
absorption maximum (in CCO): 348 nm
absorption maximum (in CN(C)C=O): 349 nm
absorption maximum (in CNC=O): 349 nm
absorption maximum (in CO): 348 nm
absorption maximum (in NC=O): 352 nm
absorption maximum (in O): 350 nm

Structure (SMILES): COc1cc(/C=C/c2nc(N3CCOCC3)c3c([n+]2[O-])CCCC3)cc(OC)c1OC
absorption maximum (in ClCCl): 390 nm

Structure (SMILES): COc1ccc(C2=C(c3ccccc3)C(c3ccccc3)=[N+]3C2=Nc2c(-c4ccc(OC)cc4)c(-c4ccccc4)c(-c4ccccc4)n2[B-]3(F)F)cc1
absorption maximum (in Cc1ccccc1): 656 nm

Structure (SMILES): CN(C)c1ccc(/C=C/C(=O)O)cc1
absorption maximum (in C1CCCCC1): 358 nm
absorption maximum (in C1CCOC1): 358 nm
absorption maximum (in C1COCCO1): 356 nm
absorption maximum (in CC#N): 364 nm
absorption maximum (in CCCCO): 356 nm
absorption maximum (in CCCO): 355 nm
absorption maximum (in CCOC(C)=O): 358 nm
absorption maximum (in CO): 357 nm
absorption maximum (in Cc1ccccc1): 362 nm
absorption maximum (in O): 323 nm
absorption maximum (in c1ccccc1): 365 nm

Structure (SMILES): CCN(CC)c1ccc2cc(/C(Cl)=C/C=C/C(=C(C#N)C#N)c3ccc4c(c3)c3ccccc3n4CC)c(=O)oc2c1
absorption maximum (in CC(C)=O): 518 nm
absorption maximum (in CCOC(C)=O): 508 nm
absorption maximum (in CN(C)C=O): 532 nm
absorption maximum (in CS(C)=O): 538 nm
absorption maximum (in Cc1ccccc1): 508 nm
absorption maximum (in ClCCl): 526 nm

Structure (SMILES): CN(C)c1ccc(-c2nc3nc4ccccc4nc3n2-c2ccccc2)cc1
absorption maximum (in CC#N): 411 nm

Now from value to compound:

absorption maximum (in CS(C)=O): 365 nm
Structure (SMILES): CCOC(=O)C1=C(N)n2c(=O)c3ccccc3c(=O)n2C1c1ccc(C)cc1 (configuration not stated)

absorption maximum (in ClC(Cl)Cl): 525 nm
Structure (SMILES): CC(C)[Si](C#Cc1c2c(=O)c3ccccc3c2c(C#C[Si](C(C)C)(C(C)C)C(C)C)c2c(=O)c3ccccc3c12)(C(C)C)C(C)C

absorption maximum (in ClCCl): 410 nm
Structure (SMILES): CCN(CC)c1ccc2cc(-c3nc4ccccc4n3-c3ccccc3)c(=O)oc2c1

absorption maximum (in C1CCOC1): 386 nm
Structure (SMILES): Cc1ccc(-c2cnc3nn4ccccc4c3c2)cc1

absorption maximum (in ClC(Cl)Cl): 654 nm
Structure (SMILES): CC1(C)C(/C=C2\C(=O)C(/C=C3\Nc4ccccc4C3(C)C)=C2[O-])=[NH+]c2ccccc21

absorption maximum (in CO): 753 nm
absorption maximum (in O): 748 nm
Structure (SMILES): CC1(C)C(/C=C/C=C/C=C/C=C2/N(CCCCCC(=O)O)c3ccc(S(=O)(=O)[O-])cc3C2(C)C)=[N+](CCCCCC(=O)O)c2ccc(S(=O)(=O)[O-])cc21

absorption maximum (in ClC(Cl)Cl): 784 nm
Structure (SMILES): COc1ccc(C2=c3sc(-c4ccc(OC)cc4)c(-c4ccc(OC)cc4)c3=[N+]3C2=Nc2c(-c4ccc(OC)cc4)c4sc(-c5ccc(OC)cc5)c(-c5ccc(OC)cc5)c4n2[B-]3(F)F)cc1

absorption maximum (in CC#N): 398 nm
Structure (SMILES): CCCCCCCCCCOc1cc2cc(C#Cc3ccc(/C=C(\C#N)C(=O)O)cc3)c(=O)oc2cc1OCCCCCCCCCC

absorption maximum (in C1CCCCC1): 320 nm
absorption maximum (in CO): 320 nm
Structure (SMILES): C(=C\c1nc2ccccc2o1)/c1ccccc1

absorption maximum (in CCO): 368 nm
Structure (SMILES): Cn1c2cc(N3CCCCC3)c(F)cc2c(=O)c2cc(F)c(N3CCCCC3)cc21

absorption maximum (in CC#N): 351 nm
absorption maximum (in CCOC(C)=O): 351 nm
absorption maximum (in CO): 345 nm
absorption maximum (in ClC(Cl)Cl): 357 nm
Structure (SMILES): Cc1cccc(Nc2ccccc2C(=O)O)c1C

absorption maximum (in CC#N): 429 nm
Structure (SMILES): Oc1ccc2ccccc2c1/C=N/c1ccccc1/N=C/c1c(O)ccc2ccccc12

absorption maximum (in ClCCl): 400 nm
Structure (SMILES): [O-][n+]1c(/C=C/c2cccs2)nc(N2CCOCC2)c2c1CCCC2

absorption maximum (in CO): 418 nm
Structure (SMILES): CCCCCCc1cc(B(c2c(C)cc(C)cc2C)c2c(C)cc(C)cc2C)c(-c2sc(CCCCCC)cc2P(=O)(c2ccccc2)c2ccccc2)s1

absorption maximum (in C1CCOC1): 431 nm
absorption maximum (in CC#N): 431 nm
absorption maximum (in ClC(Cl)Cl): 436 nm
absorption maximum (in ClCCl): 431 nm
Structure (SMILES): COc1cc(/C=C/c2nc3ccccc3o2)c(OC)cc1/C=C/c1nc(C)nc(/C=C/c2cc(OC)c(/C=C/c3nc4ccccc4o3)cc2OC)n1

absorption maximum (in ClCCl): 519 nm
absorption maximum (in OCC(F)(F)F): 509 nm
Structure (SMILES): FC(F)(F)C(F)(F)C(F)(F)C(F)(F)C(F)(F)C(F)(F)C(F)(F)C(F)(F)CCOc1nnc(Cl)nn1

absorption maximum (in CC#N): 420 nm
Structure (SMILES): Oc1ccc2ccccc2c1/C=N/c1cc2nc3ccccc3nc2cc1/N=C/c1c(O)ccc2ccccc12

absorption maximum (in ClCCl): 422 nm
Structure (SMILES): CC(C)(C)c1ccc2c(c1)c1cc(C(C)(C)C)ccc1n2-c1ccc(N(c2ccc(-c3ccc(-c4ccc(-c5ccc(-c6ccc(N(c7ccc(-n8c9ccc(C(C)(C)C)cc9c9cc(C(C)(C)C)ccc98)cc7)c7ccc(-n8c9ccc(C(C)(C)C)cc9c9cc(C(C)(C)C)ccc98)cc7)cc6)cc5)c5nsnc45)cc3)cc2)c2ccc(-n3c4ccc(C(C)(C)C)cc4c4cc(C(C)(C)C)ccc43)cc2)cc1

absorption maximum (in C1CCCCC1): 340 nm
absorption maximum (in CO): 340 nm
Structure (SMILES): Clc1ccc(/C=C/c2nc3ccccc3s2)cc1

absorption maximum (in CC#N): 446 nm
Structure (SMILES): Cc1cc(C)c2nc3c(=O)n(C)c(=O)nc-3n(C)c2c1

absorption maximum (in ClCCl): 388 nm
Structure (SMILES): CC(C)(C)NC(=O)c1ccc(C(=O)NC(C)(C)C)c2c1c1c3ccccc3c3ccccc3c1c1c3ccccc3c3ccccc3c21
